Experiments:
Histone deacetylase 2 = Histone deacetylase 2 (Homo sapiens, UniProt Q92769)
Description: Inhibition of HDAC2 assessed as blockade of decorboxylation of carboxyfluorescein labeled acetylated peptide substrate after 17 hrs

Histone deacetylase 1 = Histone deacetylase 1 (Homo sapiens, UniProt Q13547)
Description: Inhibition of HDAC1 assessed as blockade of decorboxylation of carboxyfluorescein labeled acetylated peptide substrate after 17 hrs

Histone deacetylase 8 = target: T1, Histone deacetylase 8 (Homo sapiens, UniProt Q9BY41)
T1 sequence (Q9BY41 whole entry): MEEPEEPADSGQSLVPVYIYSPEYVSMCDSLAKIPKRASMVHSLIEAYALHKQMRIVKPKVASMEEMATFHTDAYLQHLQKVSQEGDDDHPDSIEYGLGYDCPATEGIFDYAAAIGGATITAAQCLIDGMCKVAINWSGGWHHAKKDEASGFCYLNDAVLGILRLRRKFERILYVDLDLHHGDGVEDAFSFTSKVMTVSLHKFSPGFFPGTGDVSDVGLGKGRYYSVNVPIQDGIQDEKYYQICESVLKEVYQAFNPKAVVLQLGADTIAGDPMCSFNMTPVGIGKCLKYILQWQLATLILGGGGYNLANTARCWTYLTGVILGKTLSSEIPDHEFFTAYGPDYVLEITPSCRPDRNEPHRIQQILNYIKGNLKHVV
Description: Inhibition of HDAC8 assessed as blockade of decorboxylation of carboxyfluorescein labeled acetylated peptide substrate after 17 hrs

[1] = target: T2, Polyamine deacetylase HDAC10 (Homo sapiens, UniProt Q969S8)
T2 sequence (Q969S8 whole entry): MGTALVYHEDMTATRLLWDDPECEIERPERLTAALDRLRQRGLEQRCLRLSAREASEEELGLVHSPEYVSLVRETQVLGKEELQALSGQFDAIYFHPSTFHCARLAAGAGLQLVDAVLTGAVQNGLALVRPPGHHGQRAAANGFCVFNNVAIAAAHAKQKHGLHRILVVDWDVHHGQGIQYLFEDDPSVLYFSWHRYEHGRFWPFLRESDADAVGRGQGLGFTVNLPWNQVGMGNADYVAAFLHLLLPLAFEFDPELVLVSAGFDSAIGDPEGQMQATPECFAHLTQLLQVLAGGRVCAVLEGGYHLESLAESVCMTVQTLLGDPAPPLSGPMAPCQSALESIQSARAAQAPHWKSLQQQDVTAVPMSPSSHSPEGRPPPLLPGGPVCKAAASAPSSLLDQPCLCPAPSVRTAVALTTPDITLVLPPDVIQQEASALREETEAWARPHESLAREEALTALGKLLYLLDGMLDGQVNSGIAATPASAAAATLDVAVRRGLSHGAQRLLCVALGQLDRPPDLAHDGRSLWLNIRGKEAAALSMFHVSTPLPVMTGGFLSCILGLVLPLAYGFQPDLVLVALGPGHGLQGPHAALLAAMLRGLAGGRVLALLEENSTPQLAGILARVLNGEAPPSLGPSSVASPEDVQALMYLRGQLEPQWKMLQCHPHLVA
Description: Inhibition of HDAC10 assessed as blockade of decorboxylation of carboxyfluorescein labeled acetylated peptide substrate after 17 hrs

[2] = target: T3, Protein deacetylase HDAC6 (Homo sapiens, UniProt Q9UBN7)
T3 sequence (Q9UBN7 whole entry): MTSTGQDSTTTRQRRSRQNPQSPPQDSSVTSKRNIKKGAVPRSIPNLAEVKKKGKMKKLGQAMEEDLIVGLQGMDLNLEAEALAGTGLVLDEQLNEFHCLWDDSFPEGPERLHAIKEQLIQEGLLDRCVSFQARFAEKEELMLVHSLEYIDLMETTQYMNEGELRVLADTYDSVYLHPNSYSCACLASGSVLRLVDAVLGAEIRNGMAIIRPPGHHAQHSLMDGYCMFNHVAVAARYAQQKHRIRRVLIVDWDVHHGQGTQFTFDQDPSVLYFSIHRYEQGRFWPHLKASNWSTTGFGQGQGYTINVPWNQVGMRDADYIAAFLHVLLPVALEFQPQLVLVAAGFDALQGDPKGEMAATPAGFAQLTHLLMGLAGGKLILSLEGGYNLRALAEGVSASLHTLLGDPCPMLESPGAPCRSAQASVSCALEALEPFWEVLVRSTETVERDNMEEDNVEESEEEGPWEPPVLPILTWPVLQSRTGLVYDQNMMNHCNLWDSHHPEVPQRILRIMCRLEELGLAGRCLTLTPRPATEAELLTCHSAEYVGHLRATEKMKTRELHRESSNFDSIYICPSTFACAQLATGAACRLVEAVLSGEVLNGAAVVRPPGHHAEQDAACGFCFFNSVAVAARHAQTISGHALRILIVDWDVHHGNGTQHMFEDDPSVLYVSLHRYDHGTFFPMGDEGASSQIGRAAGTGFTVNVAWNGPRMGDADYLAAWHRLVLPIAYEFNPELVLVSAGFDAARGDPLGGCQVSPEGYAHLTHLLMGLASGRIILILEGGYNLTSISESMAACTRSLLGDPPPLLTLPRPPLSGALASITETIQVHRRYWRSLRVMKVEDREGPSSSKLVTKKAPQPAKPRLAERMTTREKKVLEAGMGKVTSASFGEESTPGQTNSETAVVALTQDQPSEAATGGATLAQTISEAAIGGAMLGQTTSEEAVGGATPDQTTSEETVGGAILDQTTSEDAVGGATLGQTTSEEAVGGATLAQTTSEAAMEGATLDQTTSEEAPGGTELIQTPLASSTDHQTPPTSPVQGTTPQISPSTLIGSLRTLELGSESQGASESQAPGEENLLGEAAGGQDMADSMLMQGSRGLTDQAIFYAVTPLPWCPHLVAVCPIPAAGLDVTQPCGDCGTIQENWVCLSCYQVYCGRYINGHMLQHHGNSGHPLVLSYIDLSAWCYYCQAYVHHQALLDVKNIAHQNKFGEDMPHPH
Description: Inhibition of HDAC6 assessed as blockade of decorboxylation of carboxyfluorescein labeled acetylated peptide substrate after 17 hrs

Histone deacetylase 3 = Histone deacetylase 3 (Homo sapiens, UniProt O15379)
Chain of Histone deacetylase 3 (O15379 whole entry): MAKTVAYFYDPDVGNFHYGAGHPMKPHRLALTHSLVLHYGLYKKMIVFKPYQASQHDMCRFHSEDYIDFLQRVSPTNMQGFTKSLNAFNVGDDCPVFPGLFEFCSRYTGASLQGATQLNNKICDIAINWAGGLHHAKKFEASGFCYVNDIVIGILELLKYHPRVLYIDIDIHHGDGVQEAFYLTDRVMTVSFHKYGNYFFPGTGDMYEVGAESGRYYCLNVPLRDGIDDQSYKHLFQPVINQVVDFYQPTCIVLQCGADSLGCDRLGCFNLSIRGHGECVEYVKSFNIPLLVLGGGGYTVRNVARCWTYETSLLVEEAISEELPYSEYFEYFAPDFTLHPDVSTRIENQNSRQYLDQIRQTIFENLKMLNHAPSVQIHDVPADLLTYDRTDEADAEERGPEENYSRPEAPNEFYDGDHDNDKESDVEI
Description: Inhibition of HDAC3 assessed as blockade of decorboxylation of carboxyfluorescein labeled acetylated peptide substrate after 17 hrs

BXPC-3 = experiment: cells; settings: Homo sapiens, BXPC-3, 72 h
HuP-T3 = experiment: cells; settings: Homo sapiens, HuP-T3, 72 h
MIA PaCa-2 = experiment: cells; settings: Homo sapiens, MIA PaCa-2, 72 h
cells [3] = settings: Homo sapiens, Panc 04.03, 72 h
cells [4] = settings: Homo sapiens, SU.86.86, 72 h

Chain of Histone deacetylase 1 (Q13547 whole entry): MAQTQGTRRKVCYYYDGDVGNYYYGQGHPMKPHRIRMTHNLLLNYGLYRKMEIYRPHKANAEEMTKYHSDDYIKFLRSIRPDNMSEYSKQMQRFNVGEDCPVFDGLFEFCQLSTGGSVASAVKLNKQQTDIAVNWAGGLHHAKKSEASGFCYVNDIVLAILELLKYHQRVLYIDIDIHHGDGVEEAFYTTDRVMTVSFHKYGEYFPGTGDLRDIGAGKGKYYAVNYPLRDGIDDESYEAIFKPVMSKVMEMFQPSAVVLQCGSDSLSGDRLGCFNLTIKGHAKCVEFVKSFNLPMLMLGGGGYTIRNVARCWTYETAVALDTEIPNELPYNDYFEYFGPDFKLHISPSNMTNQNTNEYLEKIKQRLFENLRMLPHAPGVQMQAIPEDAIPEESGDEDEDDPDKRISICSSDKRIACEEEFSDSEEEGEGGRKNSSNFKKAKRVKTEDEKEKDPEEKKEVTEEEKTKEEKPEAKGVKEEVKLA
Chain of Histone deacetylase 2 (Q92769 whole entry): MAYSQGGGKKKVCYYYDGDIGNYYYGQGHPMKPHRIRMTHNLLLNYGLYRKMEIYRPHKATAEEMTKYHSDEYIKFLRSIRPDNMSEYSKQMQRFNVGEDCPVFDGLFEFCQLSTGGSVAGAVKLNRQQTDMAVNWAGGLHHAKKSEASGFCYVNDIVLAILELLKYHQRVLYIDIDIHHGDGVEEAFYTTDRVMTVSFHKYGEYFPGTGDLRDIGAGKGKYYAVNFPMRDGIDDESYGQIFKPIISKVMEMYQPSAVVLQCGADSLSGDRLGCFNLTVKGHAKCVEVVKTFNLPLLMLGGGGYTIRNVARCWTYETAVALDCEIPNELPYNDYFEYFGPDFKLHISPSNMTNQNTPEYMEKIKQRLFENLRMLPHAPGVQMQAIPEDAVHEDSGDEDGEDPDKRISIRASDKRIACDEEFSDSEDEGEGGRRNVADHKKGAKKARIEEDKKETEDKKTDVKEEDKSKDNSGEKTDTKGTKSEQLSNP

Structure (SMILES)	IC50 (Histone deacetylase 2)	IC50 (Histone deacetylase 1)	IC50 (Histone deacetylase 8)	IC50 [1]	IC50 [2]	IC50 (Histone deacetylase 3)	IC50 (BXPC-3)	IC50 (HuP-T3)	IC50 (MIA PaCa-2)	IC50 (cells [3])	IC50 (cells [4])
O=C(CCCCCCC(=O)Nc1cccc(-n2cc(-c3ccccc3)nn2)c1)NO	25.1 nM	4.6 nM	4180 nM	6.8 nM	3.1 nM						
Nc1ccccc1NC(=O)CCCCCCC(=O)Nc1cccc(-n2cc(-c3ccccc3)nn2)c1			> 30000 nM	> 30000 nM	> 30000 nM	122 nM	> 50000 nM	> 50000 nM	> 50000 nM	> 50000 nM	32000 nM
O=C(CCCCCCC(=O)Nc1cccc(-c2cn(-c3ccc(C(F)(F)F)cc3)nn2)c1)NO	28.5 nM	8.7 nM	5220 nM	14.5 nM	2.9 nM						
O=C(CCCCCCC(=O)Nc1cccc(-n2cc(C3CCCCC3)nn2)c1)NO	48.2 nM	12.1 nM	2750 nM	16.6 nM	4.3 nM	5.3 nM	2000 nM	400 nM	100 nM	500 nM	900 nM
O=C(CCCCCCC(=O)Nc1cccc(-c2cn(-c3ccccc3)nn2)c1)NO										< 500 nM	
O=C(CCCCCCC(=O)Nc1cccc(-c2cn(-c3ccc(I)cc3)nn2)c1)NO	24.6 nM	8 nM	> 30000 nM	10.7 nM	2.2 nM		1100 nM	1400 nM	2330 nM	2340 nM	7700 nM
O=C(CCCCCCC(=O)Nc1cccc(-c2cn(C3CCCCC3)nn2)c1)NO	27.5 nM	8.6 nM	1190 nM	9.8 nM	3.3 nM	3.7 nM	4000 nM	400 nM	100 nM	500 nM	100 nM

Now from value to compound, other results behind:

IC50 (Histone deacetylase 2)	IC50 (Histone deacetylase 1)	IC50 (Histone deacetylase 8)	IC50 [1]	IC50 [2]	Structure (SMILES)	IC50 (Histone deacetylase 3)	IC50 (BXPC-3)	IC50 (HuP-T3)	IC50 (MIA PaCa-2)	IC50 (cells [3])	IC50 (cells [4])
60 nM	31.9 nM	12000 nM	32.8 nM	8.4 nM	O=C(CCCCCCC(=O)Nc1cccc(-c2cn(-c3ccc(F)cc3)nn2)c1)NO						
	5.3 nM				O=C(CCCCCCC(=O)Nc1cccc(-c2cn(-c3cc(F)cc(F)c3)nn2)c1)NO						
27.8 nM	5.7 nM	1320 nM	5.8 nM	1.9 nM	O=C(CCCCCCC(=O)Nc1cccc(-c2cn(-c3cc(CO)cc(CO)c3)nn2)c1)NO						
